Experiments:
[1] = Storage stability and appearance of intranasal repaglinide formulations; format: physicochemical; conditions: solution pH
Experimental: In one embodiment, a composition of the invention comprises at least 85%, at least 87%, at least 90%, at least 92%, at least 95%, at least 97%, or at least 99% of the original hypoglycemic agent (e.g., repaglinide) after storage (closed or open vessel) at 40° C. and 75% relative humidity for a period of at least 1 week, at least 2 weeks, at least 3 weeks, at least 4 weeks, at least 6 weeks, at least 8 weeks, at least 10 weeks, at least 15 weeks, at least 20 weeks, at least 25 weeks, at least 30 weeks, at least 35 weeks, at least 40 weeks, at least 45 weeks, or at least 50 weeks The formulations described in Table 1 below have shown good stability for a period of about one month. In particular, the formulations described in Example 1 below have shown no precipitation and have remained clear and colorless for a period of about one month.

[2] = Solubility of repaglinide in formulation vehicles; format: physicochemical; conditions: in 100% methoxy-polyethylene glycol, 350

In the case of CCOc1cc(CC(=O)N[C@@H](CC(C)C)c2ccccc2N2CCCCC2)ccc1C(=O)O [repaglinide, Repaglinide], the “pH of solutions in which repaglinide was often more stable” value [1] is reported as “less than or equal to 9” and the solubility of repaglinide [2] is reported as “poorly soluble or insoluble”.
